# From US8501946B2 (Glaxo Group Limited, priority 2009, dated 2013)
# Biological target: T1, human recombinant P2X7 receptors (Homo sapiens, UniProt Q99572)
# T1 construct: expressed in transfected cells
# T1 sequence (Q99572 1-595): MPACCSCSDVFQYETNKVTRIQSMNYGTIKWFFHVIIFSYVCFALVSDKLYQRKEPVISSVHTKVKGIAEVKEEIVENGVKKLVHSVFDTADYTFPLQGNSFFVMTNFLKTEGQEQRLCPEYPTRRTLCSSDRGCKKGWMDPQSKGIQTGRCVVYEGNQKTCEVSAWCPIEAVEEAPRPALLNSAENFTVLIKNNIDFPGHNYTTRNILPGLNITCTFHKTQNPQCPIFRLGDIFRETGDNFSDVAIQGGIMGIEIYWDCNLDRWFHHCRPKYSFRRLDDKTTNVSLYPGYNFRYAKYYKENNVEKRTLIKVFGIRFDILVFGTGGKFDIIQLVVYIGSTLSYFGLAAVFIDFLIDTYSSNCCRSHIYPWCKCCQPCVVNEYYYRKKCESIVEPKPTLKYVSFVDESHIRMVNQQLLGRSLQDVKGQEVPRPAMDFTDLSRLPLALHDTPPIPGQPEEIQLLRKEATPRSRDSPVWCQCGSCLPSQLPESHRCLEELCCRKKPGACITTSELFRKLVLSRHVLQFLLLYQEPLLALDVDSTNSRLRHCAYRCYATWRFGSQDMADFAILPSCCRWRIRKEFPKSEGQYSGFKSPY
# Test: Ethidium Accumulation Assay 1 (HEK293 cells, ATP-induced ethidium uptake)
# Assay type: cell-based
# Settings: HEK293 cells expressing human P2X7; 1 mM ATP; sometimes mean of more than one measurement; read-out: Assay 1 (antagonist pIC50 for blocking ATP responses) (converted)
# Description: Eithidium Accumulation Assay 1
# Studies were performed using NaCl assay buffer of the following composition: 140 mM NaCl, 10 mM HEPES [4-(2-hydroxyethyl)-1-piperazine-1-ethanesulfonic acid], 5 mM N-methyl-D-glucamine, 5.6 mM KCl, 10 mM D-glucose, 0.5 mM CaCl2 (pH 7.4).
# Human Embryonic Kidney (HEK) 293 cells, stably expressing human recombinant P2X7 receptors, were grown in poly-D-lysine pretreated 96 well plates for 18-24 hours.
# The cells were washed twice with 350 μl of the assay buffer, before addition of 50 μl of the assay buffer containing the putative P2X7 receptor antagonist compound. (A small amount of dimethyl sulfoxide, for initially dissolving the compound, is optionally used and present in this 50 μl test compound sample.) The cells were then incubated at room temperature (19-21° C.) for 30 min before addition of ATP and ethidium (100 μM final assay concentration). The ATP concentration was chosen to be close to the EC80 for the receptor type and was 1 mM for studies on the human P2X7 receptor. Incubations were continued for 8 or 16 min and were terminated by addition of 25 μl of 1.3M sucrose containing 4 mM of the P2X7 receptor antagonist Reactive Black 5 (Aldrich). […] Antagonist pIC50 values for blocking ATP responses were determined using iterative curve fitting techniques.
row,IC50 [nM],Structure (SMILES)
1,< 100,O=C(c1cccc(Cl)c1Cl)N1CCn2c(nnc2-c2ccc(F)cc2F)C1 [Example 98]
2,< 100,"O=C(c1ccccc1Cl)N1CCn2c(nnc2-c2ncccc2F)C1 [Example 121, 7-[(2-chlorophenyl)carbonyl]-3-(3-fluoro-2-pyridinyl)-5,6,7,8-tetrahydro[1,2,4]triazolo[4,3-a]pyrazine]"
3,< 100,"N#Cc1ccccc1C(=O)N1CCn2c(nnc2-c2ccccn2)C1 [Example 87, 2-{[3-(2-pyridinyl)-5,6-dihydro[1,2,4]triazolo[4,3-a]pyrazin-7(8H)-yl]carbonyl}benzonitrile]"
4,< 10,"O=C(c1cccc(C(F)(F)F)c1Cl)N1CCn2c(nnc2-c2cccc(F)n2)C1 [Example 53, 7-{[2-chloro-3-(trifluoromethyl)phenyl]carbonyl}-3-(6-fluoro-2-pyridinyl)-5,6,7,8-tetrahydro[1,2,4]triazolo [4,3-a]pyrazine]"
5,< 10,"Cn1cccc1-c1nnc2n1CCN(C(=O)c1cccc(C(F)(F)F)c1Cl)C2 [Example 29, 7-{[2-chloro-3-(trifluoromethyl)phenyl]carbonyl}-3-(1-methyl-1H-pyrrol-2-yl)-5,6,7,8-tetrahydro[1,2,4]triazolo [4,3-a]pyrazine]"
6,< 100,"O=C(c1ccccc1Cl)N1CCn2c(nnc2-c2ccc(F)cn2)C1 [Example 118, 7-[(2-chlorophenyl)carbonyl]-3-(5-fluoro-2-pyridinyl)-5,6,7,8-tetrahydro[1,2,4]triazolo[4,3-a]pyrazine]"
7,< 10,"O=C(c1cccc(C(F)(F)F)c1Cl)N1CCn2c(nnc2-c2ncc(F)cc2F)C1 [Example 83, 7-{[2-chloro-3-(trifluoromethyl)phenyl]carbonyl}-3-(3,5-difluoro-2-pyridinyl)-5,6,7,8-tetrahydro[1,2,4]triazolo [4,3-a]pyrazine]"
8,< 501,"O=C(c1ccc(F)cc1Cl)N1CCn2c(nnc2-c2cnc(Cl)cn2)C1 [Example 141, 7-[(2-Chloro-4-fluorophenyl)carbonyl]-3-(5-chloro-2-pyrazinyl)-5,6,7,8-tetrahydro[1,2,4]triazolo[4,3-a]pyrazine]"
9,< 10,"O=C(c1cccc(Cl)c1Cl)N1CCn2c(nnc2-c2cccnc2)C1 [Example 61, 7-[(2,3-dichlorophenyl)carbonyl]-3-(3-pyridinyl)-5,6,7,8-tetrahydro[1,2,4]triazolo [4,3-a]pyrazine]"
10,< 100,"O=C(c1ccccc1Cl)N1CCn2c(nnc2-c2ccccn2)C1 [Example 75, 7-[(2-chlorophenyl)carbonyl]-3-(2-pyridinyl)-5,6,7,8-tetrahydro[1,2,4]triazolo [4,3-a]pyrazine]"
11,< 501,"Cc1ccc(C(=O)N2CCn3c(nnc3-c3cnccn3)C2)c(C)c1 [Example 143, 7-[(2,4-dimethylphenyl)carbonyl]-3-(2-pyrazinyl)-5,6,7,8-tetrahydro[1,2,4]triazolo[4,3-a]pyrazine]"
12,< 100,"Cn1nccc1-c1nnc2n1CCN(C(=O)c1cccc(C(F)(F)F)c1Cl)C2 [Example 68, 7-{[2-chloro-3-(trifluoromethyl)phenyl]carbonyl}-3-(1-methyl-1H-pyrazol-5-yl)-5,6,7,8-tetrahydro[1,2,4]triazolo [4,3-a]pyrazine]"
13,< 10,"O=C(c1cccc(Cl)c1Cl)N1CCn2c(nnc2-c2ccncn2)C1 [Example 62, 7-[(2,3-dichlorophenyl)carbonyl]-3-(4-pyrimdiinyl)-5,6,7,8-tetrahydro[1,2,4]triazolo [4,3-a]pyrazine]"
14,< 10,"O=C(c1ccc(F)cc1Cl)N1CCn2c(nnc2-c2cscn2)C1 [Example 90, 7-[(2-chloro-4-fluorophenyl)carbonyl]-3-(1,3-thiazol-4-yl)-5,6,7,8-tetrahydro[1,2,4]triazolo [4,3-a]pyrazine]"
15,< 501,"CNc1nnc2n1CCN(C(=O)c1cccc(C(F)(F)F)c1Cl)C2 [Example 21, 7-{[2-chloro-3-(trifluoromethyl)phenyl]carbonyl}-N-methyl-5,6,7,8-tetrahydro[1,2,4]triazolo [4,3-a]pyrazine-3-amine]"
16,< 100,O=C(c1cccc(C(F)(F)F)c1)N1CCn2c(nnc2-c2ccccn2)C1 [Example 86]

row,IC50 [nM],Structure (SMILES)
1,< 501,"Cc1cc(-c2nnc3n2CCN(C(=O)c2ccc(F)cc2Cl)C3)no1 [Example 71, 7-[(2-chloro-4-fluorophenyl)carbonyl]-3-(5-methyl-3-isoxazolyl)-5,6,7,8-tetrahydro[1,2,4]triazolo [4,3-a]pyrazine]"
2,< 100,"O=C(c1ccc(F)cc1C(F)(F)F)N1CCn2c(nnc2-c2ccccn2)C1 [Example 94, 7-{[4-fluoro-2-(trifluoromethyl)phenyl]carbonyl}-3-(2-pyridinyl)-5,6,7,8-tetrahydro[1,2,4]triazolo [4,3-a]pyrazine]"
3,< 100,"Cn1cccc1-c1nnc2n1CCN(C(=O)c1cccc(Cl)c1Cl)C2 [Example 48, 7-[(2,3-dichlorophenyl)carbonyl]-3-(1-methyl-1H-pyrrol-2-yl)-5,6,7,8-tetrahydro[1,2,4]triazolo [4,3-a]pyrazine]"
4,< 100,"Cc1ccc(-c2nnc3n2CCN(C(=O)c2cccc(Cl)c2Cl)C3)nc1 [Example 60, 7-[(2,3-dichlorophenyl)carbonyl]-3-(5-methyl-2-pyridinyl)-5,6,7,8-tetrahydro[1,2,4]triazolo [4,3-a]pyrazine]"
5,< 100,"O=C(c1ccccc1C(F)(F)F)N1CCn2c(nnc2-c2ccccn2)C1 [Example 122, 3-(2-pyridinyl)-7-{[2-(trifluoromethyl)phenyl]carbonyl}-5,6,7,8-tetrahydro[1,2,4]triazolo[4,3-a]pyrazine]"
6,< 10,"O=C(c1ccc(F)cc1Cl)N1CCn2c(nnc2-c2ncccc2F)C1 [Example 31, 7-[(2-chloro-4-fluorophenyl)carbonyl]-3-(3-fluoro-2-pyridinyl)-5,6,7,8-tetrahydro[1,2,4]triazolo [4,3-a]pyrazine]"
7,< 10,"O=C(c1ccc(Cl)cc1F)N1CCn2c(nnc2-c2cnccn2)C1 [Example 106, 7-[(4-chloro-2-fluorophenyl)carbonyl]-3-(2-pyrazinyl)-5,6,7,8-tetrahydro[1,2,4]triazolo [4,3-a]pyrazine]"
8,< 10,"O=C(c1cccc(C(F)(F)F)c1Cl)N1CCn2c(nnc2-c2cccnc2)C1 [Example 16, 7-{[2-Chloro-3-(trifluoromethyl)phenyl]carbonyl}-3-(3-pyridinyl)-5,6,7,8-tetrahydro[1,2,4]triazolo[4,3-a]pyrazine]"
9,< 501,"O=C(c1ccc(F)cc1Cl)N1CCn2c(nnc2-c2ccccc2O)C1 [Example 128, 2-{7-[(2-chloro-4-fluorophenyl)carbonyl]-5,6,7,8-tetrahydro[1,2,4]triazolo[4,3-a]pyrazin-3-yl}phenol]"
10,< 100,"O=C(c1ccc(Cl)c(F)c1Cl)N1CCn2c(nnc2-c2ccncn2)C1 [Example 112, 7-[(2,4-Dichloro-3-fluorophenyl)carbonyl]-3-(4-pyrimidinyl)-5,6,7,8-tetrahydro[1,2,4]triazolo[4,3-a]pyrazine]"
11,< 10,"O=C(c1cccc(C(F)(F)F)c1Cl)N1CCn2c(nnc2-c2ncccc2F)C1 [Example 52, 7-{[2-chloro-3-(trifluoromethyl)phenyl]carbonyl}-3-(3-fluoro-2-pyridinyl)-5,6,7,8-tetrahydro[1,2,4]triazolo [4,3-a]pyrazine]"
12,< 100,"O=C(c1cccc(C(F)(F)F)c1Cl)N1CCn2c(nnc2-c2ccncc2)C1 [Example 10, 7-{[2-Chloro-3-(trifluoromethyl)phenyl]carbonyl}-3-(4-pyridinyl)-5,6,7,8-tetrahydro[1,2,4]triazolo[4,3-a]pyrazine]"
13,< 100,"Cc1cccnc1-c1nnc2n1CCN(C(=O)c1ccc(F)cc1Cl)C2 [Example 32, 7-[(2-chloro-4-fluorophenyl)carbonyl]-3-(3-methyl-2-pyridinyl)-5,6,7,8-tetrahydro[1,2,4]triazolo[4,3-a]pyrazine]"
14,< 501,"O=C(c1c(Cl)cccc1Cl)N1CCn2c(nnc2-c2ccccn2)C1 [Example 89, 7-[(2,6-dichlorophenyl)carbonyl]-3-(2-pyridinyl)-5,6,7,8-tetrahydro[1,2,4]triazolo [4,3-a]pyrazine]"
15,< 501,"O=C(c1cccc(C(F)(F)F)c1Cl)N1CCn2c(nnc2N2CCOCC2)C1 [Example 18, 7-{[2-Chloro-3-(trifluoromethyl)phenyl]carbonyl}-3-(4-morpholinyl)-5,6,7,8-tetrahydro[1,2,4]triazolo[4,3-a]pyrazine]"
